Reference: ChEMBL document CHEMBL5143685, “Valorisation of the diterpene podocarpic acid - Antibiotic and antibiotic enhancing activities of polyamine conjugates” (Bioorg Med Chem, 2022)
Values after ≈ are worked out from the molar mass of the structure shown.

Tests used:
Klebsiella pneumoniae = assay: Antibacterial activity against Klebsiella pneumoniae ATCC 700603 assessed as inhibition of bacterial growth measured after 18 hrs by resazurin dye based analysis; format: functional
Escherichia coli = assay: Antibacterial activity against Escherichia coli ATCC 25922 assessed as inhibition of bacterial growth measured after 18 hrs by resazurin dye based analysis; format: functional
Pseudomonas aeruginosa = assay: Antibacterial activity against Pseudomonas aeruginosa ATCC 27853 assessed as inhibition of bacterial growth measured after 18 hrs by resazurin dye based analysis; format: functional
Staphylococcus aureus = assay: Antibacterial activity against methicillin-resistant Staphylococcus aureus ATCC 43300 assessed as inhibition of bacterial growth measured after 18 hrs by resazurin dye based analysis; format: functional
Acinetobacter baumannii = assay: Antibacterial activity against Acinetobacter baumannii ATCC 19606 assessed as inhibition of bacterial growth measured after 18 hrs by resazurin dye based analysis; format: functional
Candida albicans = assay: Antifungal activity against Candida albicans ATCC 90028 assessed as fungal growth inhibition incubated for 36 hrs by resazurin dye based analysis; format: functional
Cryptococcus neoformans = assay: Antifungal activity against Cryptococcus neoformans ATCC 208821 assessed as fungal growth inhibition incubated for 36 hrs by resazurin dye based analysis; format: functional
[1] = Cytotoxicity against HEK293 cells assessed as cell growth inhibition measured after 20 hrs by resazurin dye based assay; format: toxicity; settings: human

Row | Compound | MIC (Klebsiella pneumoniae) [µM] | MIC (Escherichia coli) [µM] | MIC (Pseudomonas aeruginosa) [µM] | MIC (Staphylococcus aureus) [µM] | MIC (Acinetobacter baumannii) [µM] | MIC (Candida albicans) [µM] | MIC (Cryptococcus neoformans) [µM] | IC50 at 20 h [1] [µM]
1 | CCCCCNC(=O)[C@@]1(C)CCC[C@]2(C)c3cc(OC(=O)CCCNCCCCCCCNCCCNC(=O)Oc4ccc5c(c4)[C@@]4(C)CCC[C@](C)(C(=O)NCCCCC)[C@@H]4CC5)ccc3CC[C@@H]12.O=C(O)C(F)(F)F.O=C(O)C(F)(F)F | > 26.4 | > 26.4 | > 26.4 | ≤ 0.21 | > 26.4 | ≤ 0.21 | 3.3 | > 26.4
2 | CCCCCNC(=O)[C@@]1(C)CCC[C@]2(C)c3cc(OC(=O)CCCNCCCCCCCCCCCCNCCCNC(=O)Oc4ccc5c(c4)[C@@]4(C)CCC[C@](C)(C(=O)NCCCCC)[C@@H]4CC5)ccc3CC[C@@H]12.O=C(O)C(F)(F)F.O=C(O)C(F)(F)F | > 25 | > 25 | > 25 | 1.56 | > 25 | ≤ 0.19 | ≤ 0.19 | > 25
3 | CCCCCNC(=O)[C@@]1(C)CCC[C@]2(C)c3cc(OC(=O)CCCNCCCCCCNCCCNC(=O)Oc4ccc5c(c4)[C@@]4(C)CCC[C@](C)(C(=O)NCCCCC)[C@@H]4CC5)ccc3CC[C@@H]12.O=C(O)C(F)(F)F.O=C(O)C(F)(F)F | > 26.7 | > 26.7 | > 26.7 | ≤ 0.21 | > 26.7 | 1.67 | 6.68 | > 26.7
4 | CCCCCNC(=O)[C@@]1(C)CCC[C@]2(C)c3cc(OC(=O)CCCNCCCCNCCCNC(=O)Oc4ccc5c(c4)[C@@]4(C)CCC[C@](C)(C(=O)NCCCCC)[C@@H]4CC5)ccc3CC[C@@H]12.O=C(O)C(F)(F)F.O=C(O)C(F)(F)F | > 27.4 | > 27.4 | > 27.4 | ≤ 0.21 | > 27.4 | 13.7 | > 27.4 | > 27.4
5 | C[C@]1(C(=O)NCCCNCCCCCCCCN)CCC[C@]2(C)c3cc(OC(=O)NCCCNCCCCCCCCN)ccc3CC[C@@H]12.O=C(O)C(F)(F)F.O=C(O)C(F)(F)F.O=C(O)C(F)(F)F.O=C(O)C(F)(F)F | > 28 | > 28 | > 28 | > 28 | > 28 | > 28 | > 28 | > 28
6 | C[C@]1(C(=O)NCCCNCCCCCCCNCCCNC(=O)[C@@]2(C)CCC[C@]3(C)c4cc(O)ccc4CC[C@@H]23)CCC[C@]2(C)c3cc(O)ccc3CC[C@@H]12.O=C(O)C(F)(F)F.O=C(O)C(F)(F)F | > 32.5 | 32.5 | > 32.5 | 32.5 | > 32.5 | 32.5 | 32.5 | 19.1
7 | C[C@]1(C(=O)O)CCC[C@]2(C)c3cc(O)ccc3CC[C@@H]12 [PODOCARIC ACID] | > 117 | > 117 | > 117 | > 117 | > 117 | > 117 | > 117 | –
8 | CCCCCNC(=O)[C@@]1(C)CCC[C@]2(C)c3cc(OC(=O)CCCNCCCCCCCCNCCCNC(=O)Oc4ccc5c(c4)[C@@]4(C)CCC[C@](C)(C(=O)NCCCCC)[C@@H]4CC5)ccc3CC[C@@H]12.O=C(O)C(F)(F)F.O=C(O)C(F)(F)F | > 26.1 | > 26.1 | > 26.1 | 1.63 | > 26.1 | ≤ 0.2 | ≤ 0.2 | > 26.1
9 | C[C@H]1c2cccc(O)c2C(=O)C2=C(O)[C@]3(O)C(=O)C(C(N)=O)=C(O)[C@@H](N(C)C)[C@@H]3[C@@H](O)[C@@H]21 [DOXYCYCLINE] | – | – | 90 (≈ 40 µg/mL) | – | – | – | – | –
10 | C[C@]1(C(=O)NCCCNCCCCN)CCC[C@]2(C)c3cc(O)ccc3CC[C@@H]12 | > 50.8 | > 50.8 | > 50.8 | > 50.8 | > 50.8 | > 50.8 | > 50.8 | –
11 | C[C@]1(C(=O)O)CCC[C@]2(C)c3cc(OC(=O)NCCCNCCCCN)ccc3CC[C@@H]12 | > 47.5 | > 47.5 | > 47.5 | > 47.5 | > 47.5 | > 47.5 | > 47.5 | –
12 | CN[C@H](CC(C)C)C(=O)N[C@H]1C(=O)N[C@@H](CC(N)=O)C(=O)N[C@H]2C(=O)N[C@H]3C(=O)N[C@H](C(=O)N[C@H](C(=O)O)c4cc(O)cc(O)c4-c4cc3ccc4O)[C@H](O)c3ccc(c(Cl)c3)Oc3cc2cc(c3O[C@@H]2O[C@H](CO)[C@@H](O)[C@H](O)[C@H]2O[C@H]2C[C@](C)(N)[C@H](O)[C@H](C)O2)Oc2ccc(cc2Cl)[C@H]1O [VANCOMYCIN] | – | – | – | 0.7 (≈ 1.01 µg/mL) | – | – | – | –
13 | C[C@]1(C(=O)NCCCNCCCCCCCCCCN)CCC[C@]2(C)c3cc(O)ccc3CC[C@@H]12.O=C(O)C(F)(F)F.O=C(O)C(F)(F)F | > 44.8 | > 44.8 | > 44.8 | > 44.8 | > 44.8 | > 44.8 | > 44.8 | > 44.8
14 | C[C@]1(C(=O)O)CCC[C@]2(C)c3cc(OC(=O)CCCNCCCCCCCCCCCCNCCCNC(=O)Oc4ccc5c(c4)[C@@]4(C)CCC[C@](C)(C(=O)O)[C@@H]4CC5)ccc3CC[C@@H]12.O=C(O)C(F)(F)F.O=C(O)C(F)(F)F | > 28 | > 28 | > 28 | 14 | > 28 | > 28 | 3.5 | > 28
15 | C[C@]1(C(=O)O)CCC[C@]2(C)c3cc(OC(=O)NCCCNCCCCCCCCN)ccc3CC[C@@H]12.O=C(O)C(F)(F)F.O=C(O)C(F)(F)F | > 43.8 | > 43.8 | > 43.8 | > 43.8 | > 43.8 | > 43.8 | > 43.8 | > 43.8
16 | OC(Cn1cncn1)(Cn1cncn1)c1ccc(F)cc1F [FLUCONAZOLE] | – | – | – | – | – | 0.4 (≈ 0.123 µg/mL) | 26 (≈ 7.96 µg/mL) | –
17 | CCCCCNC(=O)[C@@]1(C)CCC[C@]2(C)c3cc(OC(=O)CCCNCCCCCCCCCCNCCCNC(=O)Oc4ccc5c(c4)[C@@]4(C)CCC[C@](C)(C(=O)NCCCCC)[C@@H]4CC5)ccc3CC[C@@H]12.O=C(O)C(F)(F)F.O=C(O)C(F)(F)F | > 25.5 | > 25.5 | > 25.5 | ≤ 0.2 | > 25.5 | ≤ 0.2 | 3.19 | > 25.5
18 | COC(=O)[C@@]1(C)CCC[C@]2(C)c3cc(OC(=O)CCCNCCCCCCCCCCNCCCNC(=O)Oc4ccc5c(c4)[C@@]4(C)CCC[C@](C)(C(=O)OC)[C@@H]4CC5)ccc3CC[C@@H]12.O=C(O)C(F)(F)F.O=C(O)C(F)(F)F | > 28 | > 28 | > 28 | 3.5 | > 28 | ≤ 0.22 | ≤ 0.22 | 1.3
19 | COLISTIN | 0.2 | 0.1 | 0.2 | – | 0.2 | – | – | –
20 | CC[C@H]1OC(=O)[C@H](C)[C@@H](O[C@H]2C[C@@](C)(OC)[C@@H](O)[C@H](C)O2)[C@H](C)[C@@H](O[C@@H]2O[C@H](C)C[C@H](N(C)C)[C@H]2O)[C@](C)(O)C[C@@H](C)C(=O)[C@H](C)[C@@H](O)[C@]1(C)O [ERYTHROMYCIN] | – | 174 (≈ 128 µg/mL) | – | – | – | – | – | –
21 | C[C@]1(C(=O)O)CCC[C@]2(C)c3cc(OC(=O)NCCCNCCCCCCCCCCN)ccc3CC[C@@H]12 | > 42.2 | > 42.2 | > 42.2 | > 42.2 | > 42.2 | > 42.2 | > 42.2 | –
